Molecular target: Cyclin-dependent kinase 1 (Homo sapiens, UniProt P06493)
Assay: Inhibition of CDK1

Chain of Cyclin-dependent kinase 1 (P06493 whole entry): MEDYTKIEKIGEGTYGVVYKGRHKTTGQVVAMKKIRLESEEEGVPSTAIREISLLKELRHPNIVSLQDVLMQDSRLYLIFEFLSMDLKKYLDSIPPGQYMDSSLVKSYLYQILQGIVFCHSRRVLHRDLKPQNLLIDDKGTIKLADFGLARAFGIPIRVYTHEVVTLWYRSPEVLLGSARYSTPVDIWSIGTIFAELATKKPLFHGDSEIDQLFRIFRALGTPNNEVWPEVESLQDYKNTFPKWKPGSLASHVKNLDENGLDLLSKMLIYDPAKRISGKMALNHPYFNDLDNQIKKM

| Compound | IC50 |
| --- | --- |
| OCCSC(=S)Nc1ccc(Cl)c(Cl)c1 | 2500 nM |
| O=C(NCCCO)c1cc(Cl)ccc1O | 2530 nM |
| OCCN(CCO)Cc1cc(Cl)c2cccnc2c1O | 3230 nM |
| O=Cc1cc(CCCCCCc2ccc(O)c(C=O)c2)ccc1O | 4900 nM |
| C[C@H](N[C@@H](C)COc1ccccc1)[C@@H](O)c1ccc(O)cc1 | 2900 nM |
| COc1cc(OC)nc(NC(=O)NS(=O)(=O)c2cc(NC=O)ccc2C(=O)N(C)C)n1 [FORAMSULFURON] | 3600 nM |
| O=c1c(O)c(-c2ccc(O)c(O)c2)oc2cc(O)cc(O)c12 [QUERCETIN] | 450 nM |

More lines, now with the values ahead:

| IC50 | Compound |
| --- | --- |
| 1400 nM | OCCNC(=S)Nc1ccc(C(F)(F)F)cc1 |
| 830 nM | CCN(CCO)CCCNc1ccnc2cc(Cl)ccc12 |
| 910 nM | COC(=O)c1cc(NC(C)=O)ccc1S(=O)(=O)c1ccc(NC(C)=O)cc1C(=O)OC |
| 2100 nM | Cc1cc2[nH]c(=S)n([C@@H]3O[C@H](CO)[C@@H](O)[C@H]3O)c2cc1C |

Source: ChEMBL document CHEMBL1240477, “Discovery of novel CDK1 inhibitors by combining pharmacophore modeling, QSAR analysis and in silico screening followed by in vitro bioassay” (Eur J Med Chem, 2010)
